The record followed here is ChEMBL document CHEMBL1142021, “Aglycon specificity profiling of alpha-glucosidases using synthetic probes” (Bioorg Med Chem Lett, 2005).

A value given as a limit tells only on which side of the number the result lay.

The nature of test [1]: Inhibition of Flint corn glucosidase (of family 31 alpha-glucosidase) by compound with concentration 1 umol/mI.
Test [2] deals with T1, Beta-mannosidase (Homo sapiens) (UniProt O00462).
T1 sequence (whole entry): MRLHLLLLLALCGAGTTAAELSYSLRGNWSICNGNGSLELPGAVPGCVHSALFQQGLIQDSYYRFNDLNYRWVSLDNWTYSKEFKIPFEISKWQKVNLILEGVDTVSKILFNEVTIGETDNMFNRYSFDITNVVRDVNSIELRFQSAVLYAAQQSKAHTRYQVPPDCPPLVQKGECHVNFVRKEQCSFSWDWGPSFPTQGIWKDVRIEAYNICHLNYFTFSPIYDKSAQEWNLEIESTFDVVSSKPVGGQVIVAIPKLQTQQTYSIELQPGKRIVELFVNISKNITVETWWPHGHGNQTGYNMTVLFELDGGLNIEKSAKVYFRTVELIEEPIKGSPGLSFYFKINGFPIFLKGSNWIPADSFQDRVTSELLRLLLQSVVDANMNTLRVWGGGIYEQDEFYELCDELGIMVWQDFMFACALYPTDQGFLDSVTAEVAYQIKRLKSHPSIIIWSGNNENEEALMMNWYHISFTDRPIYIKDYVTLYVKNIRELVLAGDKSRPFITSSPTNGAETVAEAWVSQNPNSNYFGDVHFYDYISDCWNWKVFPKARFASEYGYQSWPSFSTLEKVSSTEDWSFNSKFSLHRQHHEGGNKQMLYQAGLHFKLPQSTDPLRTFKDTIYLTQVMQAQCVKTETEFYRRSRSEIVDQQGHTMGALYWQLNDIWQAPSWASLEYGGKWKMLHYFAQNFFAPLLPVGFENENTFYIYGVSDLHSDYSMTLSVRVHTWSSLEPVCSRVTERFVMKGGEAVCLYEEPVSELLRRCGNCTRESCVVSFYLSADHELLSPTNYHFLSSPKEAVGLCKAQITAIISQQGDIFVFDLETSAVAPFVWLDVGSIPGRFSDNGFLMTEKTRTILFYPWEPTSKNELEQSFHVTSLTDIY
Kind of test: Inhibition of beta-Mannosidase at 5 umol/mL.

Test [3] has as its target T2, Lysosomal alpha-mannosidase (Homo sapiens) (UniProt O00754).
T2 sequence (whole entry): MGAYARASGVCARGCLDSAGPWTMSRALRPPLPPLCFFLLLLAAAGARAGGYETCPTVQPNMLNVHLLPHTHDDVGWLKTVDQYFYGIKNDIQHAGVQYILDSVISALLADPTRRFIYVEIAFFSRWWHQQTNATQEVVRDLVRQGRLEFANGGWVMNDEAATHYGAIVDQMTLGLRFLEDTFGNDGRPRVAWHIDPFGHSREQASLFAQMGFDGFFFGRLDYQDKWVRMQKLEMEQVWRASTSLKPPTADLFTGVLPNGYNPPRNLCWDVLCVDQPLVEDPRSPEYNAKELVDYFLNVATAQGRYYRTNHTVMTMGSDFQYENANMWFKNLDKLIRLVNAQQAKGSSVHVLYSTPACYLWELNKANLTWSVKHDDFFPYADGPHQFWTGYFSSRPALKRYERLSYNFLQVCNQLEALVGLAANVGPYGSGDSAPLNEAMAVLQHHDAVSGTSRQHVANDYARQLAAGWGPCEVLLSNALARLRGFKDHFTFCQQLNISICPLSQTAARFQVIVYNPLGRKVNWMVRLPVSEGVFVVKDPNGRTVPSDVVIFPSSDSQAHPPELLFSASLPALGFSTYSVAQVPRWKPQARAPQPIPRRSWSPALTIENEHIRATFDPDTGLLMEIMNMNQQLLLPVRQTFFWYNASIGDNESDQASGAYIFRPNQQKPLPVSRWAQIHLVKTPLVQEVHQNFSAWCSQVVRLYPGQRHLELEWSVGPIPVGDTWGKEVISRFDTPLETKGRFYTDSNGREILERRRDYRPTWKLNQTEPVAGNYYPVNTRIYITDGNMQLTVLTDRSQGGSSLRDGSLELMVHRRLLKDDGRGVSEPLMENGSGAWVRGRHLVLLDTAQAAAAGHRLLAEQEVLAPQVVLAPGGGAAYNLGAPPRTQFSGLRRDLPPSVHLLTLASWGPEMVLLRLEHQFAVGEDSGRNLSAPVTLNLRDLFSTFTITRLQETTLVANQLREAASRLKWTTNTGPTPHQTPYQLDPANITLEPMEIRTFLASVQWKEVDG
Nature of the test: Inhibition of alpha-Mannosidase at 5 umol/mL.

A further test concerns Saccharomyces cerevisiae. Nature of the test: Inhibition of Saccharomyces cerevisiae glucosidase (of family 13 alpha-glucosidase) by compound with concentration 1 umol/mI.
The target in test [4] is T3, Cytosolic beta-glucosidase (Homo sapiens) (UniProt Q9H227).
T3 sequence (whole entry): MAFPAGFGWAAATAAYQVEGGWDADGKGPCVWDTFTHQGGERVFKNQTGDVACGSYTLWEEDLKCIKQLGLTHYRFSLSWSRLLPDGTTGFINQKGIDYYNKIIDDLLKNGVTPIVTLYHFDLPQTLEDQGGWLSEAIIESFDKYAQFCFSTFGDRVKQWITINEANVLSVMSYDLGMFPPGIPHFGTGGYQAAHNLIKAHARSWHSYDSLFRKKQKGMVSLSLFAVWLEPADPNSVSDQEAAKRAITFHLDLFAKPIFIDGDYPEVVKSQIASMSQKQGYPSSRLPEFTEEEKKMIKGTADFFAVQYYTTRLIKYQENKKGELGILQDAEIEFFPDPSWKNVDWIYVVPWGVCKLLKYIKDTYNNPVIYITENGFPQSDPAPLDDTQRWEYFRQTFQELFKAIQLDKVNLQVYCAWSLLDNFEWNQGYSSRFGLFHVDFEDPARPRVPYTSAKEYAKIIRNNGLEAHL
Nature of the test: Inhibition of beta-Glucosidase at 2 umol/mL.

Test [5] is described as follows: Inhibitory concentration for Saccharomyces cerevisiae glucosidase (of family 13 alpha-glucosidase) at 1 umol/mL.
The nature of test [6]: Competitive Inhibition constant for Saccharomyces cerevisiae glucosidase.

One may read the inhibition as the change of the read-out against control, counted positive when it falls. A high value points to a response far below the control. In general, IC50 refers to the concentration that gives 50% inhibition. A high value points to weaker potency in that assay. What is called Ki is a measure of affinity in units of concentration, obtained from inhibition or displacement. Read a low Ki as a stronger hold on the target.

In the case of `CC(C)(C)C(=O)NCC1OC(CO)C(O)C(O)C1O` (stereo unspecified), the inhibition in test [1] was 5.6%; in test [2] it was < 1%; in test [3], < 1%; with Saccharomyces cerevisiae, 6.1%; in test [4] it was < 1%.
As for `O=C(CCCCO)NCC1OC(CO)C(O)C(O)C1O` (stereo unspecified), half-maximal inhibition in test [5] (IC50) was put at 55.5 µM. Also, the inhibition in test [1] is 37%; in test [2], < 1%; in test [3], < 1%; in the test on Saccharomyces cerevisiae it was 100%; in test [4], < 1%. Also, in test [6], the Ki was determined as 130 µM.
`O=C(CO)NCC1OC(CO)C(O)C(O)C1O` (stereo unspecified): the inhibition in test [1] is 29.1%; in test [2] it was < 1%; in test [3], < 1%; in the test with Saccharomyces cerevisiae, < 1%; in test [4], < 1%.
For `O=C(NCC1OC(CO)C(O)C(O)C1O)c1ccccc1` (stereo unspecified), the midpoint of inhibition in test [5], the IC50, lay at 449 µM. In addition, the inhibition is 49.2% in test [1], < 1% in test [3] and 67.4% in the test on Saccharomyces cerevisiae. In addition, in test [6], the affinity corresponds to a Ki of 500 µM.
Turning to `CC(=O)NCC1OC(CO)C(O)C(O)C1O` (stereo unspecified), the inhibition is 31% in test [1]; < 1% in test [2]; < 1% in test [3]; < 1% with Saccharomyces cerevisiae; < 1% in test [4].
Take `O=C(CCCO)NCC1OC(CO)C(O)C(O)C1O` (stereo unspecified): the inhibition in test [1] was 18.5%; in test [2] it was < 1%; in the test on Saccharomyces cerevisiae, < 1%; in test [4], < 1%.
Consider `O=C(CCCCCO)NCC1OC(CO)C(O)C(O)C1O` (stereo unspecified), for which the inhibition in test [1] was 44.6%; in test [2], < 1%; in test [3], < 1%; with Saccharomyces cerevisiae, < 1%; in test [4], < 1%.
As for `O=C(CCO)NCC1OC(CO)C(O)C(O)C1O` (stereo unspecified), the inhibition was 14.1% in test [1]; < 1% in test [2]; < 1% in test [3]; 21.1% with Saccharomyces cerevisiae; < 1% in test [4].
